Data published in publication PMC8037310, “Thrombin-Derived Peptides Potentiate the Activity of Gram-Positive-Specific Antibiotics against Gram-Negative Bacteria” (Molecules, 2021).
Converted amounts (≈) assume the structure as drawn. “And” between values parts separate entries of the source, which are not always exact repeats. Equal values may be shown once. Peptide text beside a SMILES is read from it.

What was measured:
E. coli BW25113 [1] = test: microbe, parasite or virus in culture; format: cell-based, Escherichia coli; settings: for MSCnovo: novobiocin concentration in the combination giving the lowest FICi; for MSCnovo / MSCpeptide: E. coli BW25113; for MICpeptide: synergist alone, E. coli BW25113, from checkerboard with novobiocin; for MSCpeptide: synergist concentration in the combination with novobiocin giving the lowest FICi
Protocol: (§1) All peptides were screened for antimicrobial activity against E. coli BW25113, E. coli ATCC25922, and E. coli W3110. A select group of the peptides was further tested against E. coli mcr-1, E. coli EQASmcr-1 (EQAS 2016 412016126), E. coli EQASmcr-2 (EQAS 2016 KP37), E. coli EQASmcr-3 (EQAS 2017 2013-SQ352), K. pneumoniae ATCC13883, P. aeruginosa ATCC27853, and A. baumannii ATCC17978. The antimicrobial assay was performed according to CLSI guidelines. Bacteria were plated out directly from their glycerol stocks on blood agar plates, incubated overnight at 37 °C, and then kept in the fridge. The blood agar plates were only used for 2 weeks and then replaced.
(§2) One colony from a blood agar plates was inoculated in Lysogeny Broth (LB) at 37 °C until a 0.5 optical density at 600 nm (OD600) was reached (compared to the sterility control of LB). The bacterial suspension was diluted in fresh LB to 2.0 × 10^6 CFU/mL. The serial dilutions were prepared in polypropylene microtiter plates: a stock of the test compounds was prepared with a 2x final concentration in LB. Moreover, 100 µL of the stock was added to the wells of the top row of which 50 µL was used for the serial dilution. The bottom row of each plate was used as the positive (50 µL of LB) and negative controls (100 µL of LB) (6 wells each). Furthermore, 50 µL of the 2.0 × 10^6 CFU/mL bacterial stock was added to each well except for the negative controls, adding up to a total volume of 100 µL per well. The plates were sealed with a breathable seal and incubated for 20 h at 37 °C and 600 rpm.
(§3) Two 96-well plates were required per compound. A serial dilution of the compound was performed on two plates from row A–G using with LB as medium. Row H was filled with 25 µL medium. On a separate plate a negative control (8 wells, 100 μL medium) was prepared. For all concentrations of antibiotic a specific stock was prepared. 25 µL medium was added to the 0 µg/mL antibiotic columns (plate I, column 1–3). Of each antibiotic stock 25 µL was added to three columns to obtain triplicates for every condition. Both plates contained 50 µL in each well to which 50 µL bacterial stock was added (see the protocol of the MIC assays) and the plates were sealed. After incubation for 20 h at 37 °C while shaking, the breathable seals were removed and the density of the bacterial suspensions measured at 600 nm (OD600) using a Tecan Spark plate reader. The OD600 values were transformed to a 2D gradient with the negative control as minimum and the positive control (wells G1, G2, and G3) as maximum in excel. The FICi was calculated using Equation (1) with a FICi ≤ 0.5 indicating synergy. FICi = (MSCa/MICa) + (MSCb/MICb),(1)
(§4) Calculation of the FICi: MSCa = concentration of the […] in combination with the antibiotic that results in the lowest FICi. MICa = MIC of the antibiotic without synergist (row G). MSCb = concentration of the synergist in combination with the antibiotic that results in the lowest FICi. MICb = MIC of the synergist itself (Column 1–3, plate I).

A. baumannii ATCC17978 = test: microbe, parasite or virus in culture; format: cell-based, Acinetobacter baumannii; settings: for MICpeptide: peptide alone; for MICpeptide / MSCpeptide / MSCrif: A. baumannii ATCC17978; for MSCpeptide: peptide concentration in the combination with rifampicin giving the lowest FICi; for MSCrif: rifampicin concentration in the combination giving the lowest FICi
Protocol: as §1, §2, §3, §4

[2] = test system: defibrinated sheep blood (red blood cells); test: Hemolysis assay; format: cell-based; settings: 200 µg/mL compound, 20 h incubation at 37 °C with defibrinated sheep blood, PBS 0.002% Tween20, absorbance 415 nm, relative to 0.1% Triton X-100; n=3 technical replicates
How it was run: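 % hemolysis is supernatant absorbance at 415 nm, minus the buffer-only background, relative to 0.1% Triton X-100 lysis. Compound dilutions (200–1.56 µg/mL before adding cells) were incubated with an equal volume of red cells for 20 h at 37 °C and 500 rpm. Cells were washed and normalized in PBS/0.002% Tween20 to about 2.5 A415 at full lysis.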

K. pneumoniae ATCC13883 = test: Checkerboard assay with rifampicin; format: cell-based, Klebsiella pneumoniae; settings: K. pneumoniae ATCC13883; for MICpeptide: peptide alone; for MSCpeptide: peptide concentration in the combination with rifampicin giving the lowest FICi; for MSCrif: rifampicin concentration in the combination giving the lowest FICi
Protocol: as §1, §2, §3, §4

E. coli BW25113 [3] = test: LPS competition assay; format: cell-based, Escherichia coli; settings: E. coli BW25113, LB, 20 h 37 °C, visual read-out
Protocol: as §2
The same protocol as the MIC assay was used to prepare the serial dilution of the compounds in 96-wells plates in duplicate resulting in two identical plates. A serial dilution of colistin was taken along as a control. The inoculation and preparation of the bacteria stock was performed as described for the MIC assay. The stock of bacteria was then split into two stocks. […] The normal bacteria stock was added to the remaining plate as described in the MIC assay.

[4] = with rifampicin vs A. baumannii ATCC17978

| Compound | FICi (E. coli BW25113 [1]; BW25113, 20 h) | MSCnovo (E. coli BW25113 [1]) [µg/mL] | MICpeptide (E. coli BW25113 [1]) [µg/mL] | MSCpeptide (E. coli BW25113 [1]) [µg/mL] | MICpeptide (A. baumannii ATCC17978) [µg/mL] | MSCpeptide (A. baumannii ATCC17978) [µg/mL] | MSCrif (A. baumannii ATCC17978) [µg/mL] | FICi (A. baumannii ATCC17978; [4]) | Hemolysis [2] | MICpeptide (K. pneumoniae ATCC13883) [µg/mL] | MSCpeptide (K. pneumoniae ATCC13883) [µg/mL] | MSCrif (K. pneumoniae ATCC13883) [µg/mL] | MIC + 1.0 mg/ml LPS (E. coli BW25113 [3]; in the presence of 1 mg/mL LPS) [µg/mL] | MIC (E. coli BW25113 [3]; without LPS) [µg/mL] | FICi (E. coli BW25113 [1]; with novobiocin vs E. coli BW25113) | FICi (A. baumannii ATCC17978; ATCC17978, 20 h) |
| --- | --- | --- | --- | --- | --- | --- | --- | --- | --- | --- | --- | --- | --- | --- | --- | --- |
| CC[C@H](C)[C@H](NC(=O)[C@@H](NC(=O)[C@H](CCCCN)NC(=O)[C@H](CCC(N)=O)NC(=O)[C@@H](NC(=O)[C@H](Cc1c[nH]c2ccccc12)NC(=O)[C@H](CCCCN)NC(=O)[C@H](CCCCN)NC(=O)[C@H](CC(C)C)NC(=O)[C@H](CCCNC(=N)N)NC(=O)[C@H](Cc1ccccc1)NC(=O)[C@@H](N)C(C)C)[C@@H](C)CC)C(C)C)C(N)=O [peptide 6] (H-VFRLKKWIQKVI-NH2) | 0.1875 | 25 | 12.5 | 1.563 | 50 | 3.125 | 0.125 | 0.1250 | 4.0% | 100 | 3.125 | 1 | 200 | 12.5 (≈ 8.03 µM) | – | – |
| CC[C@H](C)[C@H](NC(=O)[C@@H](NC(=O)[C@H](CCCCN)NC(=O)[C@H](CCC(N)=O)NC(=O)[C@@H](NC(=O)[C@H](Cc1c[nH]c2ccccc12)NC(=O)[C@H](CCCCN)NC(=O)[C@H](CCCCN)NC(=O)[C@H](CC(C)C)NC(=O)[C@H](C)NC(=O)[C@H](Cc1ccccc1)NC(=O)[C@@H](N)C(C)C)[C@@H](C)CC)C(C)C)C(N)=O [peptide 10] (H-VFALKKWIQKVI-NH2) | – | 6.25 | 100 | 6.25 | 50 | 3.125 | 0.125 | 0.1250 | 3.8% and 4% | > 200 | 12.5 | 1 | – | – | 0.0781 | – |
| CC[C@H](C)[C@H](NC(=O)[C@@H](NC(=O)[C@H](CCCCN)NC(=O)[C@H](CCC(N)=O)NC(=O)[C@@H](NC(=O)[C@H](C)NC(=O)[C@H](CCCCN)NC(=O)[C@H](CCCCN)NC(=O)[C@H](CC(C)C)NC(=O)[C@H](CCCNC(=N)N)NC(=O)[C@H](Cc1ccccc1)NC(=O)[C@@H](N)C(C)C)[C@@H](C)CC)C(C)C)C(N)=O [peptide 14] (H-VFRLKKAIQKVI-NH2) | 0.0313 | 6.25 | > 200 | 6.25 | > 200 | 6.25 | 0.125 | – | 0.9% and 1% | > 200 | 6.25 | 0.25 | – | – | – | 0.0781 |
| CC[C@H](C)[C@H](NC(=O)[C@H](Cc1c[nH]c2ccccc12)NC(=O)[C@H](CCCCN)NC(=O)[C@H](CCCCN)NC(=O)[C@H](CC(C)C)NC(=O)[C@H](CCCNC(=N)N)NC(=O)[C@H](Cc1ccccc1)NC(=O)[C@@H](N)C(C)C)C(=O)N[C@@H](CCC(N)=O)C(=O)N[C@@H](CCCCN)C(=O)N[C@H](C(=O)N[C@@H](C)C(N)=O)C(C)C [peptide 19] (H-VFRLKKWIQKVA-NH2) | 0.0390 | 3.125 | 200 | 6.25 | 100 | 6.25 | 0.063 | – | 1.0% | > 200 | 6.25 | 0.25 | – | – | – | 0.0938 |
